Reference: PubChem BioAssay (NCI)
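The compound was tested at five concentrations on cells cultured in 96-well plates, with a 48-hour exposure period. GI50 = concentration required for 50% inhibition of growth. At the TGI there is no net growth.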

Columns and labels:
Assay in all cases: NCI-60 cell line screen, 48 h
NCI/ADR-RES ovarian = tested on: NCI/ADR-RES ovarian
NCI-H23 lung = tested on: NCI-H23 lung
RXF 393 renal = tested on: RXF 393 renal
UACC-62 melanoma = tested on: UACC-62 melanoma
K-562 leukemia = tested on: K-562 leukemia
SK-OV-3 ovarian = tested on: SK-OV-3 ovarian
RPMI-8226 leukemia = tested on: RPMI-8226 leukemia
COLO 205 colon = tested on: COLO 205 colon
SK-MEL-28 melanoma = tested on: SK-MEL-28 melanoma
HCT-116 colon = tested on: HCT-116 colon
SR leukemia = tested on: SR leukemia
CCRF-CEM leukemia = tested on: CCRF-CEM leukemia
MALME-3M melanoma = tested on: MALME-3M melanoma
MDA-MB-231 breast = tested on: MDA-MB-231 breast
OVCAR-8 ovarian = tested on: OVCAR-8 ovarian
T-47D breast = tested on: T-47D breast
HT29 colon = tested on: HT29 colon
A498 renal = tested on: A498 renal
A549 NSCLC = tested on: A549 NSCLC
HCT-15 colon = tested on: HCT-15 colon
HOP-62 NSCLC = tested on: HOP-62 NSCLC
UACC-257 melanoma = tested on: UACC-257 melanoma
MDA-MB-435 = tested on: MDA-MB-435
PC-3 prostate = tested on: PC-3 prostate
NCI-H522 lung = tested on: NCI-H522 lung
SN12C renal = tested on: SN12C renal
DU-145 prostate = tested on: DU-145 prostate
OVCAR-5 ovarian = tested on: OVCAR-5 ovarian
HL-60(TB) leukemia = tested on: HL-60(TB) leukemia
KM12 colon = tested on: KM12 colon
ACHN renal = tested on: ACHN renal
OVCAR-4 ovarian = tested on: OVCAR-4 ovarian
NCI-H226 lung = tested on: NCI-H226 lung
SF-539 CNS = tested on: SF-539 CNS
HCC-2998 colon = tested on: HCC-2998 colon
SK-MEL-2 melanoma = tested on: SK-MEL-2 melanoma
TK-10 renal = tested on: TK-10 renal
HS 578T breast = tested on: HS 578T breast
SNB-75 CNS = tested on: SNB-75 CNS
U251 CNS = tested on: U251 CNS
M14 melanoma = tested on: M14 melanoma
OVCAR-3 ovarian = tested on: OVCAR-3 ovarian
SF-295 CNS = tested on: SF-295 CNS
EKVX NSCLC = tested on: EKVX NSCLC
786-0 renal = tested on: 786-0 renal
SW-620 colon = tested on: SW-620 colon
LOX IMVI melanoma = tested on: LOX IMVI melanoma
IGROV1 ovarian = tested on: IGROV1 ovarian
UO-31 renal = tested on: UO-31 renal
BT-549 breast = tested on: BT-549 breast
CAKI-1 renal = tested on: CAKI-1 renal

`CC(=O)/C=C/C1=C(c2cccs2)c2ccccc2CC1` gave a GI50 (NCI/ADR-RES ovarian) of 27.3 µM, a TGI (NCI/ADR-RES ovarian) of 81.7 µM and a GI50 (NCI-H23 lung) of 34.3 µM. For the same compound, the TGI (NCI-H23 lung) was greater than 100 µM, the GI50 (RXF 393 renal) was 31.8 µM and the TGI (RXF 393 renal) was 78.9 µM. It also gave a GI50 (UACC-62 melanoma) of 17.6 µM, a TGI (UACC-62 melanoma) of 33.2 µM and a GI50 (K-562 leukemia) of 32.5 µM. It also gave a TGI (K-562 leukemia) greater than 100 µM, a GI50 (SK-OV-3 ovarian) of 42 µM and a TGI (SK-OV-3 ovarian) greater than 100 µM. For the same compound, the GI50 (RPMI-8226 leukemia) was 19.9 µM, the TGI (RPMI-8226 leukemia) was 47.6 µM and the GI50 (COLO 205 colon) was 23.1 µM. For the same compound, the TGI (COLO 205 colon) was 49 µM, the GI50 (SK-MEL-28 melanoma) was 22.4 µM and the TGI (SK-MEL-28 melanoma) was 52.2 µM. It also gave a GI50 (HCT-116 colon) of 37.6 µM, a TGI (HCT-116 colon) greater than 100 µM and a GI50 (SR leukemia) of 23.6 µM. For the same compound, the TGI (SR leukemia) was 51.8 µM, the GI50 (CCRF-CEM leukemia) was 25.3 µM and the TGI (CCRF-CEM leukemia) was 54.2 µM. For the same compound, the GI50 (MALME-3M melanoma) was 28.3 µM, the TGI (MALME-3M melanoma) was 54.9 µM and the GI50 (MDA-MB-231 breast) was 23.3 µM. It also gave a TGI (MDA-MB-231 breast) of 59.1 µM, a GI50 (OVCAR-8 ovarian) of 38.9 µM and a TGI (OVCAR-8 ovarian) greater than 100 µM. For the same compound, the GI50 (T-47D breast) was 23.7 µM, the TGI (T-47D breast) was 53.5 µM and the GI50 (HT29 colon) was 26.9 µM. It also gave a TGI (HT29 colon) of 68.4 µM, a GI50 (A498 renal) of 23.7 µM and a TGI (A498 renal) of 47.9 µM. For the same compound, the GI50 (A549 NSCLC) was 37.3 µM, the TGI (A549 NSCLC) was greater than 100 µM and the GI50 (HCT-15 colon) was 21.8 µM. For the same compound, the TGI (HCT-15 colon) was 52.7 µM, the GI50 (HOP-62 NSCLC) was 33.8 µM and the TGI (HOP-62 NSCLC) was 88 µM. The GI50 (UACC-257 melanoma) was 19.7 µM, the TGI (UACC-257 melanoma) was 41.7 µM and the GI50 (MDA-MB-435) was 25.8 µM. For the same compound, the TGI (MDA-MB-435) was 51.3 µM, the GI50 (PC-3 prostate) was 40.7 µM and the TGI (PC-3 prostate) was greater than 100 µM. The GI50 (NCI-H522 lung) was 25.1 µM, the TGI (NCI-H522 lung) was 66.8 µM and the GI50 (SN12C renal) was 23.5 µM. For the same compound, the TGI (SN12C renal) was 48.5 µM, the GI50 (DU-145 prostate) was 42.8 µM and the TGI (DU-145 prostate) was greater than 100 µM. The GI50 (OVCAR-5 ovarian) was 60.7 µM, the TGI (OVCAR-5 ovarian) was greater than 100 µM and the GI50 (HL-60(TB) leukemia) was 20.7 µM. It also gave a TGI (HL-60(TB) leukemia) greater than 100 µM, a GI50 (KM12 colon) of 25.2 µM and a TGI (KM12 colon) of 56.2 µM. The GI50 (ACHN renal) was 22.5 µM, the TGI (ACHN renal) was 57.5 µM and the GI50 (OVCAR-4 ovarian) was 25.1 µM. It also gave a TGI (OVCAR-4 ovarian) of 64.9 µM, a GI50 (NCI-H226 lung) of 28.7 µM and a TGI (NCI-H226 lung) of 93.5 µM. For the same compound, the GI50 (SF-539 CNS) was 27.5 µM, the TGI (SF-539 CNS) was 81 µM and the GI50 (HCC-2998 colon) was 25.8 µM. The TGI (HCC-2998 colon) was 59.8 µM, the GI50 (SK-MEL-2 melanoma) was 25.6 µM and the TGI (SK-MEL-2 melanoma) was 71.2 µM. It also gave a GI50 (TK-10 renal) of 32 µM, a TGI (TK-10 renal) greater than 100 µM and a GI50 (HS 578T breast) of 29.5 µM. It also gave a TGI (HS 578T breast) of 98.6 µM, a GI50 (SNB-75 CNS) of 25.6 µM and a TGI (SNB-75 CNS) of 68.1 µM. It also gave a GI50 (U251 CNS) of 22.8 µM, a TGI (U251 CNS) of 51.1 µM and a GI50 (M14 melanoma) of 18.8 µM. The TGI (M14 melanoma) was 41.7 µM, the GI50 (OVCAR-3 ovarian) was 29.7 µM and the TGI (OVCAR-3 ovarian) was 63.6 µM. It also gave a GI50 (SF-295 CNS) of 22.5 µM, a TGI (SF-295 CNS) of 54.5 µM and a GI50 (EKVX NSCLC) of 35.1 µM. It also gave a TGI (EKVX NSCLC) greater than 100 µM, a GI50 (786-0 renal) of 49.4 µM and a TGI (786-0 renal) greater than 100 µM. It also gave a GI50 (SW-620 colon) of 33.9 µM, a TGI (SW-620 colon) greater than 100 µM and a GI50 (LOX IMVI melanoma) of 17.8 µM. The TGI (LOX IMVI melanoma) was 34.2 µM, the GI50 (IGROV1 ovarian) was 19.8 µM and the TGI (IGROV1 ovarian) was 49.7 µM. It also gave a GI50 (UO-31 renal) of 25.7 µM, a TGI (UO-31 renal) of 86.4 µM and a GI50 (BT-549 breast) of 32.6 µM. The TGI (BT-549 breast) was greater than 100 µM, the GI50 (CAKI-1 renal) was 41 µM and the TGI (CAKI-1 renal) was greater than 100 µM.
